Measurements reported in ChEMBL document CHEMBL4387730, “Discovery of a new autophagy inducer for A549 lung cancer cells” (Bioorg Med Chem, 2019).
Active and inactive are the calls of the source. The calls are words filed in the database; no cut-off is given here.

Experiments:
A549 [1] = test: Cytotoxicity against human A549 cells assessed as reduction in viability after 48 hrs by SRB assay; format: functional, cell-based; conditions: A549, 48 h
A549 [2] = test: Cytotoxicity against human A549 cells assessed as reduction in viability at 0.1 to 20 uM after 24 hrs by SRB assay; format: functional, cell-based
A549 [3] = test: Cytotoxicity against human A549 cells assessed as reduction in viability at 0.1 to 20 uM after 48 hrs by SRB assay; format: functional, cell-based
A549 [4] = test: Induction of apoptosis in human A549 cells assessed as increase in Cleaved-PARP expression at 1 to 10 uM after 24 hrs by Western blot analysis; format: functional, cell-based
A549 [5] = test: Inhibition of autophagy flux in human A549 assessed as increase in p62 expression at 1 to 10 uM after 24 hrs by Western blot analysis; format: functional, cell-based
A549 [6] = test: Induction of autophagy in human A549 cells assessed as increase in […] expression at 1 to 10 uM after 24 hrs by Western blot analysis; format: functional, cell-based
A549 [7] = test: Induction of necrosis in human A549 cells assessed as increase in LDH activity at 10 uM after 24 hrs by absorption spectrophotometric method; format: cell-based; conditions: a549, 24 h
A549 [8] = test: Induction of autophagy in human A549 cells assessed as accumulation of acidic vesicles at 0.05 to 20 uM after 24 hrs by acridine orange staining based fluorescence microscopic method; format: functional, cell-based
A549 [9] = test: Induction of necrosis in human A549 cells assessed as increase in LDH activity at 0.1 to 5 uM after 24 hrs by absorption spectrophotometric method; format: cell-based; conditions: a549, 24 h
A549 [10] = test: Induction of morphological changes in human A549 cells assessed as apoptotic body formation at 0.1 to 20 uM after 3 to 24 hrs by acridine orange staining based inverted phase contrast microscopic method; format: functional, cell-based
A549 [11] = test: Induction of autophagy in human A549 cells assessed decrease in p62 expression at 1 to 10 uM after 24 hrs by Western blot analysis; format: functional, cell-based
mTORC1 (Homo sapiens) = mTORC1 (Homo sapiens) (UniProt P42345+Q8N122+Q9BVC4); test: Inhibition of mTORC1 in human A549 cells assessed as reduction in p70S6K phosphorylation at 10 uM after 3 to 24 hrs by Western blot analysis; format: cell-based
A549 [12] = test: Induction of autophagic flux in human A549 cells assessed as increase in LC3-II protein level at 10 uM after 24 hrs in presence of V-ATPase inhibitor bafilomycin-A1 by Western blot analysis; format: functional, cell-based
U-87 MG = test: Induction of autophagy in human U87 cells transfected with GFP-fused LC3-II assessed as punctiform pattern of LC3-II at 1 to 10 uM after 24 hrs by laser scanning confocal microscopic method; format: functional, cell-based; conditions: U-87MG ATCC

Chain of mTORC1 (Homo sapiens) (Q8N122 whole entry, looked up, other chains not shown): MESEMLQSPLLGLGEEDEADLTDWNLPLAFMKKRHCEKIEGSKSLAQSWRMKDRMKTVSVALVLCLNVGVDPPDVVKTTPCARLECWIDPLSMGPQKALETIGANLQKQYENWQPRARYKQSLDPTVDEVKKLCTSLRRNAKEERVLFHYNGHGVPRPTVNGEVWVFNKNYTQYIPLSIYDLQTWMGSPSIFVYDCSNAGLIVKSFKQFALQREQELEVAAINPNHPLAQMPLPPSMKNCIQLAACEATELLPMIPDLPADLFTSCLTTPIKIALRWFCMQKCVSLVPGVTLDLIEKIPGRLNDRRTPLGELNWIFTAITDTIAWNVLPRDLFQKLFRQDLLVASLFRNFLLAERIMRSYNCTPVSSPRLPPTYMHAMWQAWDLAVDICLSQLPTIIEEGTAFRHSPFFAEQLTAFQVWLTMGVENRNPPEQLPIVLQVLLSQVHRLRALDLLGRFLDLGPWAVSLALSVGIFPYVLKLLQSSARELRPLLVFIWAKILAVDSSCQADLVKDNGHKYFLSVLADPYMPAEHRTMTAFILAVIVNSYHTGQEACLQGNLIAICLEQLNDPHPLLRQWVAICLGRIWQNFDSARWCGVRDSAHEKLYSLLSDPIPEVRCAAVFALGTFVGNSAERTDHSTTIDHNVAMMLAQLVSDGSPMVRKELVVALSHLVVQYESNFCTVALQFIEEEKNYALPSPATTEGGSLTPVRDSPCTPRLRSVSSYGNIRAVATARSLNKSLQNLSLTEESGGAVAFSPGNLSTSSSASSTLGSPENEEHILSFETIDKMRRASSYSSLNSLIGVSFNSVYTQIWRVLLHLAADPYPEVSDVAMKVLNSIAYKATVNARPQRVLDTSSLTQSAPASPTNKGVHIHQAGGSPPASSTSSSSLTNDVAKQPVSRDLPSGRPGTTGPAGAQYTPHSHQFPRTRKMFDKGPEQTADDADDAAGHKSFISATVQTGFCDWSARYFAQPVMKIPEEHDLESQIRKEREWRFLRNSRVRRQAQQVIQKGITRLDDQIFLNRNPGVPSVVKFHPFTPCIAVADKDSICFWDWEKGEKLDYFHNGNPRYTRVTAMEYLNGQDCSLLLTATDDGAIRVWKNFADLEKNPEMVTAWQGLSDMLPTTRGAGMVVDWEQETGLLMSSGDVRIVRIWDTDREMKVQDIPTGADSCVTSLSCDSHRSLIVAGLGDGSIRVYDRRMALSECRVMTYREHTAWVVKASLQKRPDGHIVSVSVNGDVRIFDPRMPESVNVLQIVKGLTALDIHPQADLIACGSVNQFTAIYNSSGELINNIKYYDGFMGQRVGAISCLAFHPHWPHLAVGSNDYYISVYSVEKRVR
Chain of mTORC1 (Homo sapiens) (Q9BVC4 whole entry, looked up, other chains not shown): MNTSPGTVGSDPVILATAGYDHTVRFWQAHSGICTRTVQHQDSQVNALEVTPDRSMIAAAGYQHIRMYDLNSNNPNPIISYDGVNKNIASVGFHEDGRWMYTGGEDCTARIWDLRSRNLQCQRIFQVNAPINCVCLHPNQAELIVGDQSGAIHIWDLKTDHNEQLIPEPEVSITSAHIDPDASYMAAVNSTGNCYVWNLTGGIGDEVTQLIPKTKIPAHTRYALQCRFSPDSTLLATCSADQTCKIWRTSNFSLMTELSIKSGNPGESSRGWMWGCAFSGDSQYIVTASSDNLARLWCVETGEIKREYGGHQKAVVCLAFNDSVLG

Row | SMILES | Activity (A549 [2]) | Activity (A549 [3]) | further results
1 | C[N+]1=C(/C=C/c2ccc(N3CCNCC3)cc2)C(C)(C)c2ccccc21 | Active | Active | IC50 (A549 [1]): 13.6 µM
2 | O=C(O)c1ccc(N2C(=O)c3cccc4cccc(c34)C2=O)cc1 | inactive | inactive | 
3 | CCN(CC)c1ccc2cc(-c3ccc(N)cc3)c(=O)oc2c1 | inactive | inactive | 
4 | CCN(CC)c1ccc2cc(-c3ccc(C)cc3)c(=O)oc2c1 | inactive | inactive | 
5 | CCN(CC)c1ccc2ccc(=O)oc2c1 | inactive | inactive | 
6 | Cc1cc[n+](CCCN2c3ccccc3S(=O)(=O)c3cc(C(=O)O)ccc32)cc1 | inactive | inactive | 
7 | O=Cc1ccc2c(c1)c1ccccc1n2CCCN1CCNCC1 | inactive | inactive | 
8 | CC1(C)CC(/C=C/c2ccc(N3CCNCC3)cc2)=CC(=C(C#N)C#N)C1 | Active | Active | Activity (A549 [4]): Active; inhibition (A549 [5]): Active; Activity (A549 [6]): Active; Activity (A549 [7]): Toxic; Activity (A549 [8]): Active; IC50 (A549 [1]): 7.1 µM; Activity (A549 [9]): Non-Toxic; Activity (A549 [10]): Active
9 | O=Cc1ccc2c(c1)c1ccccc1n2CCCCl | inactive | inactive | 
10 | C[N+]1=C(/C=C/c2ccc(N)cc2)C(C)(C)c2ccccc21 | Active | Active | IC50 (A549 [1]): 3.9 µM
11 | O=C(O)c1ccc2c(c1)S(=O)(=O)c1ccccc1N2CCCCl | inactive | inactive | 
12 | O=C(O)c1ccc(-c2oc3ccccc3c(=O)c2O)cc1 | inactive | inactive | 
13 | O=c1[nH]cc(F)c(=O)[nH]1 [FLUOROURACIL] | Active | Active | IC50 (A549 [1]): 7.1 µM
14 | O=C1OC(=O)c2ccc(N3CCCC3)c3cccc1c23 | inactive | inactive | 
15 | CCN(CC)C(=O)c1ccc(-c2oc3ccccc3c(=O)c2O)cc1 | inactive | inactive | 
16 | CC1=[N+](C)c2ccccc2C1(C)C | inactive | inactive | 
17 | C[N+]1=C(/C=C/c2ccc(N3CCCCC3)cc2)C(C)(C)c2ccccc21.[I-] | Active | Active | Activity (A549 [11]): Active; Activity (A549 [4]): Active; Activity (A549 [6]): Active; inhibition (mTORC1 (Homo sapiens)): Active; Activity (A549 [7]): Non-Toxic; Activity (A549 [8]): Active; IC50 (A549 [1]): 1.1 µM; Activity (A549 [12]): Active; Activity (A549 [9]): Non-Toxic; Activity (U-87 MG): Dose-dependent effect; Activity (A549 [10]): Active
